Experimental data as given in US20070128217A1 (priority 2003, published 2007).

Assays:
[1] = tested on: rabbit serum obtained by immunizing a rabbit with the SARS-CoV strain Frankfurt 1; assay type: binding; design: Binding of a rabbit serum to linear peptides / Binding of a rabbit serum to looped peptides / Rabbit serum linear peptides / Rabbit serum looped peptides / Binding of a rabbit serum to linear peptides of protein N of SARS-CoV Urbani (Rabbit serum linear peptides) / Binding of a rabbit serum to looped/cyclic peptides of protein N of SARS-CoV Urbani (Rabbit serum looped peptides): unit not given here
[2] = tested on: control sera (pooled serum of ten healthy LUMC hospital workers; commercial negative donor pooled serum from the Dutch bloodbank); assay type: binding, human; design: Binding of Control serum LUMC to linear peptides / Binding of Control serum Blood-bank to linear peptides / Binding of Control serum LUMC to looped peptides / Binding of Control Serum Blood-Bank to Looped peptides / Binding of Control serum LUMC to linear peptides of the protein M of SARS-CoV Urbani / Binding of Control serum Blood-bank to linear peptides of the protein M of SARS-CoV Urbani / Binding of Control serum LUMC to looped peptides of the protein M of SARS-CoV Urbani / Binding of Control Serum Blood-Bank to Looped peptides of the protein M of SARS-CoV Urbani: unit not given here
[3] = tested on: antibodies in sera from SARS patients (sera 1a, 1b, 2, 6, 37, 62, London, SARS-yellow, SARS-green); assay type: binding, human; design: Binding of serum 6 to linear peptides of protein X1 of SARS-CoV Urbani / Binding of serum 37 to linear peptides of protein X1 of SARS-CoV Urbani / Binding of serum 6 to looped/cyclic peptide (PEPSCAN-ELISA) / Binding of serum 37 to looped/cyclic peptide (PEPSCAN-ELISA) / Binding of serum 37 to looped/cyclic peptides of protein X1 of SARS-CoV Urbani / Binding of serum 6 to linear peptides of protein X2 / Binding of serum 37 to linear peptides of protein X2 / Binding of serum 37 to looped/cyclic peptides of protein X2 of SARS-CoV Urbani / Binding of serum 6 to linear peptides of protein M of SARS-CoV Urbani / Binding of serum 37 to linear peptides of protein M of SARS-CoV Urbani / Binding of serum 6 to looped/cyclic peptides of protein M of SARS-CoV Urbani / Binding of serum 37 to looped/cyclic peptides of protein M of SARS-CoV Urbani / Binding of serum 6 to linear peptides of protein X3 of SARS-CoV Urbani / Binding of serum 37 to linear peptides of protein X3 of SARS-CoV Urbani / Binding of serum 37 to looped/cyclic peptides of protein X3 of SARS-CoV Urbani / Binding of serum 6 to linear peptides of protein X4 of SARS-CoV Urbani / Binding of serum 37 to linear peptides of protein X4 of SARS-CoV Urbani / Binding of serum 37 to looped/cyclic peptides of protein X4 of SARS-CoV Urbani / Binding of serum 6 to linear peptides of protein X5 of SARS-CoV Urbani / Binding of serum 37 to linear peptides of protein X5 of SARS-CoV Urbani / Binding of serum 37 to looped/cyclic peptides of protein X5 of SARS-CoV Urbani / Binding of serum 6 to linear peptides of protein N of SARS-CoV Urbani / Binding of serum 37 to linear peptides of protein N of SARS-CoV Urbani / Binding of serum 6 to linear peptide (PEPSCAN-ELISA) / Binding of serum 1a to looped/cyclic peptides of protein N of SARS-CoV Urbani / Binding of serum 1b to looped/cyclic peptides of protein N of SARS-CoV Urbani / Binding of serum 2 to looped/cyclic peptides of protein N of SARS-CoV Urbani / Binding of serum 6 to looped/cyclic peptides of protein N of SARS-CoV Urbani / Binding of serum 37 to looped/cyclic peptides of protein N of SARS-CoV Urbani / Binding of serum 62 to looped/cyclic peptides of protein N of SARS-CoV Urbani / Binding of serum London to looped/cyclic peptides of protein N of SARS-CoV Urbani / Binding of serum SARS-green to looped/cyclic peptides of protein N of SARS-CoV Urbani: unit not given here

EVQQELYSPLFLIVA
Rabbit serum linear peptides [1]: 0.5
Rabbit serum looped peptides [1]: 0.5
Binding of Control Serum Blood-Bank to Looped peptides [2]: 0.7
Binding of Control serum Blood-bank to linear peptides [2]: 0.5
Binding of Control serum LUMC to linear peptides [2]: 0.5
Binding of Control serum LUMC to looped peptides [2]: 0.8
Binding of serum 1a to linear peptides of protein X4 of SARS-CoV Urbani [3]: 0.7
Binding of serum 1a to looped/cyclic peptides of protein X4 of SARS-CoV Urbani [3]: 0.7
Binding of serum 1b to linear peptides of protein X4 of SARS-CoV Urbani [3]: 0.6
Binding of serum 1b to looped/cyclic peptides of protein X4 of SARS-CoV Urbani [3]: 0.6
Binding of serum 2 to linear peptides of protein X4 of SARS-CoV Urbani [3]: 0.4
Binding of serum 2 to looped/cyclic peptides of protein X4 of SARS-CoV Urbani [3]: 0.6
Binding of serum 6 to linear peptides of protein X4 of SARS-CoV Urbani [3]: 0.9
Binding of serum 6 to looped/cyclic peptides of protein X4 of SARS-CoV Urbani [3]: 0.5
Binding of serum 37 to linear peptides of protein X4 of SARS-CoV Urbani [3]: 0.8
Binding of serum 37 to looped/cyclic peptides of protein X4 of SARS-CoV Urbani [3]: 0.7
Binding of serum 62 to linear peptides of protein X4 of SARS-CoV Urbani [3]: 0.7
Binding of serum 62 to looped/cyclic peptides of protein X4 of SARS-CoV Urbani [3]: 0.6
Binding of serum London to linear peptides of protein X4 of SARS-CoV Urbani [3]: 1.0
Binding of serum London to looped/cyclic peptides of protein X4 of SARS-CoV Urbani [3]: 0.3
Binding of serum SARS-green to linear peptides of protein X4 of SARS-CoV Urbani [3]: 0.8
Binding of serum SARS-green to looped/cyclic peptides of protein X4 of SARS-CoV Urbani [3]: 0.3
Binding of serum SARS-yellow to linear peptides of protein X4 of SARS-CoV Urbani [3]: 0.6
Binding of serum SARS-yellow to looped/cyclic peptides of protein X4 of SARS-CoV Urbani [3]: 0.9
Recognition of the peptide by sera of SARS-CoV infected individuals, and form (linear, looped/cyclic) in which it is recognized [3]: recognized in looped/cyclic form

FACADGTRHTYQLRA
Recognition of the peptide by the rabbit serum [1]: recognized
Binding of Control Serum Blood-Bank to Looped peptides [2]: 0.3
Binding of Control serum Blood-bank to linear peptides [2]: 0.7
Binding of Control serum LUMC to linear peptides [2]: 0.4
Binding of Control serum LUMC to looped peptides [2]: 0.4
Binding of serum 1a to linear peptides of protein X4 of SARS-CoV Urbani [3]: 0.7
Binding of serum 1a to looped/cyclic peptides of protein X4 of SARS-CoV Urbani [3]: 0.7
Binding of serum 1b to linear peptides of protein X4 of SARS-CoV Urbani [3]: 0.4
Binding of serum 1b to looped/cyclic peptides of protein X4 of SARS-CoV Urbani [3]: 0.6
Binding of serum 2 to linear peptides of protein X4 of SARS-CoV Urbani [3]: 0.4
Binding of serum 2 to looped/cyclic peptides of protein X4 of SARS-CoV Urbani [3]: 0.6
Binding of serum 6 to linear peptides of protein X4 of SARS-CoV Urbani [3]: 0.4
Binding of serum 6 to looped/cyclic peptides of protein X4 of SARS-CoV Urbani [3]: 0.3
Binding of serum 37 to linear peptides of protein X4 of SARS-CoV Urbani [3]: 0.6
Binding of serum 37 to looped/cyclic peptides of protein X4 of SARS-CoV Urbani [3]: 0.7
Binding of serum 62 to linear peptides of protein X4 of SARS-CoV Urbani [3]: 0.7
Binding of serum 62 to looped/cyclic peptides of protein X4 of SARS-CoV Urbani [3]: 0.7
Binding of serum London to linear peptides of protein X4 of SARS-CoV Urbani [3]: 0.8
Binding of serum London to looped/cyclic peptides of protein X4 of SARS-CoV Urbani [3]: 0.4
Binding of serum SARS-green to linear peptides of protein X4 of SARS-CoV Urbani [3]: 0.5
Binding of serum SARS-green to looped/cyclic peptides of protein X4 of SARS-CoV Urbani [3]: 0.8
Binding of serum SARS-yellow to linear peptides of protein X4 of SARS-CoV Urbani [3]: 0.2
Binding of serum SARS-yellow to looped/cyclic peptides of protein X4 of SARS-CoV Urbani [3]: 0.3

FALTCTSTHFAFACA
Rabbit serum linear peptides [1]: 0.6
Rabbit serum looped peptides [1]: 0.4
Binding of Control Serum Blood-Bank to Looped peptides [2]: 0.7
Binding of Control serum Blood-bank to linear peptides [2]: 0.6
Binding of Control serum LUMC to linear peptides [2]: 0.6
Binding of Control serum LUMC to looped peptides [2]: 0.6
Binding of serum 1a to linear peptides of protein X4 of SARS-CoV Urbani [3]: 0.7
Binding of serum 1a to looped/cyclic peptides of protein X4 of SARS-CoV Urbani [3]: 0.8
Binding of serum 1b to linear peptides of protein X4 of SARS-CoV Urbani [3]: 0.5
Binding of serum 1b to looped/cyclic peptides of protein X4 of SARS-CoV Urbani [3]: 0.5
Binding of serum 2 to linear peptides of protein X4 of SARS-CoV Urbani [3]: 0.4
Binding of serum 2 to looped/cyclic peptides of protein X4 of SARS-CoV Urbani [3]: 0.7
Binding of serum 6 to linear peptides of protein X4 of SARS-CoV Urbani [3]: 0.5
Binding of serum 6 to looped/cyclic peptides of protein X4 of SARS-CoV Urbani [3]: 0.5
Binding of serum 37 to linear peptides of protein X4 of SARS-CoV Urbani [3]: 0.7
Binding of serum 37 to looped/cyclic peptides of protein X4 of SARS-CoV Urbani [3]: 0.6
Binding of serum 62 to linear peptides of protein X4 of SARS-CoV Urbani [3]: 0.7
Binding of serum 62 to looped/cyclic peptides of protein X4 of SARS-CoV Urbani [3]: 0.7
Binding of serum London to linear peptides of protein X4 of SARS-CoV Urbani [3]: 0.7
Binding of serum London to looped/cyclic peptides of protein X4 of SARS-CoV Urbani [3]: 0.3
Binding of serum SARS-green to linear peptides of protein X4 of SARS-CoV Urbani [3]: 0.5
Binding of serum SARS-green to looped/cyclic peptides of protein X4 of SARS-CoV Urbani [3]: 0.5
Binding of serum SARS-yellow to linear peptides of protein X4 of SARS-CoV Urbani [3]: 0.6
Binding of serum SARS-yellow to looped/cyclic peptides of protein X4 of SARS-CoV Urbani [3]: 0.7

FARTRSMWSFNPETN
Rabbit serum linear peptides [1]: 0.4
Rabbit serum looped peptides [1]: 0.3
Binding of Control Serum Blood-Bank to Looped peptides of the protein M of SARS-CoV Urbani [2]: 0.8
Binding of Control serum Blood-bank to linear peptides of the protein M of SARS-CoV Urbani [2]: 0.9
Binding of Control serum LUMC to linear peptides of the protein M of SARS-CoV Urbani [2]: 0.5
Binding of Control serum LUMC to looped peptides of the protein M of SARS-CoV Urbani [2]: 0.6
Binding of serum 1a to linear peptides of protein M of SARS-CoV Urbani [3]: 0.8
Binding of serum 1a to looped/cyclic peptides of protein M of SARS-CoV Urbani [3]: 0.9
Binding of serum 1b to linear peptides of protein M of SARS-CoV Urbani [3]: 0.7
Binding of serum 1b to looped/cyclic peptides of protein M of SARS-CoV Urbani [3]: 0.6
Binding of serum 2 to linear peptides of protein M of SARS-CoV Urbani [3]: 0.7
Binding of serum 2 to looped/cyclic peptides of protein M of SARS-CoV Urbani [3]: 0.6
Binding of serum 6 to linear peptides of protein M of SARS-CoV Urbani [3]: 0.4
Binding of serum 6 to looped/cyclic peptides of protein M of SARS-CoV Urbani [3]: 0.7
Binding of serum 37 to linear peptides of protein M of SARS-CoV Urbani [3]: 0.9
Binding of serum 37 to looped/cyclic peptides of protein M of SARS-CoV Urbani [3]: 0.9
Binding of serum 62 to linear peptides of protein M of SARS-CoV Urbani [3]: 0.8
Binding of serum 62 to looped/cyclic peptides of protein M of SARS-CoV Urbani [3]: 0.8
Binding of serum London to linear peptides of protein M of SARS-CoV Urbani [3]: 0.4
Binding of serum London to looped/cyclic peptides of protein M of SARS-CoV Urbani [3]: 0.3
Binding of serum SARS-green to linear peptides of protein M of SARS-CoV Urbani [3]: 0.3
Binding of serum SARS-green to looped/cyclic peptides of protein M of SARS-CoV Urbani [3]: 0.0
Binding of serum SARS-yellow to linear peptides of protein M of SARS-CoV Urbani [3]: 0.1
Binding of serum SARS-yellow to looped/cyclic peptides of protein M of SARS-CoV Urbani [3]: 0.5
